Read-outs that look alike come from different tables or passages of the source.
Key:
[1] = biological target: T1, CCR2 (Homo sapiens, UniProt P41597); test: NanoBRET competition binding assay for CCR2 based on 7, as previously reported; details: for inhibition at 20 µM: compound at 20 μM
T1 construct: host or cells: HEK293T, transient
T1 sequence (P41597 1-360 isoform P41597-2): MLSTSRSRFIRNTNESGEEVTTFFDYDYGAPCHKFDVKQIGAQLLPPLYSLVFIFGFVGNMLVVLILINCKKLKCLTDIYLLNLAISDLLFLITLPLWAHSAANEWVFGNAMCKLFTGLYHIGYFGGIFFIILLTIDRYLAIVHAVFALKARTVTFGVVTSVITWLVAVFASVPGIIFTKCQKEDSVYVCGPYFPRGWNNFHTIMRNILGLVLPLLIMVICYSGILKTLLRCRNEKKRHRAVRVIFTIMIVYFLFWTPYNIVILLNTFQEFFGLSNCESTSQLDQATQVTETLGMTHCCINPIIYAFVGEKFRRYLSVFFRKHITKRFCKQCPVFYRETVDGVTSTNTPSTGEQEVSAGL
From the text: With 6 (Figure 1), a first lead structure for intracellular CCR1 inhibition that features an approximately 20-fold CCR1 over CCR2 selectivity was previously discovered by Ortiz Zacarías et al.([33]) In order to discover new chemotypes for selective CCR1 over CCR2 inhibition, we aimed to apply our novel NanoBRET competition binding assay for CCR1 in combination with our recently published CCR2 competition binding assay based on 7.[47] In our first attempt, we screened a small in-house library enriched with intracellular GPCR ligands and structural analogues thereof. […] Additionally, we tested 23 for binding to the IABS of CCR9 and CXCR2 using our recently reported NanoBRET-based assay platform (Figure 6C).[44],[45] In the course of these studies, we detected no binding of 23 to CCR9 and CXCR2 up to a concentration of 20 μM. Since cell lineage-dependent effects have been observed for CCR1 antagonists,[59] we studied the CCR1 over CCR2 selectivity of 23 by using a previously reported radioligand binding assay with membrane preparations from osteosarcoma (U2OS) cells stably expressing human CCR1 or CCR2.[33] […] In agreement with these previous reports,[33] we observed a reduction in CCR1 over CCR2 selectivity when moving from membrane-based binding assays to cell-based functional assays. […] To investigate a potential signaling bias of 23, we tested the compound by means of a NanoBiT miniGi recruitment assay.[60] […] Thus, this indicated no strong signaling bias of 23 (Figures S9E and S10C). To elucidate the SAR of this new scaffold for selective CCR1 over CCR2 inhibition, we synthesized several analogues of 23 (24–40) and tested them by means of our NanoBRET competition binding assays (Schemes S2 and S3, Table 1, Figures 6F and S11). First, we aimed to examine the impact of the stereochemistry of 23 on CCR1 affinity. As for the structurally related pyrrolone 4, large differences in CCR2 affinity between the eutomer 4-[R] and the distomer 4-[S] were described.[61] […] Furthermore, we identified the 4-hydroxyphenethyl group at position 1 of the pyrrolone scaffold as highly important for CCR1 affinity and selectivity. Its presence seems to block CCR2 binding, also when combined with the structural features of the high-affinity CCR2 ligand 5, as exemplified by 24. Especially the 4-hydroxy group at this moiety is essential for CCR1 binding (see 25 and 26). […] In position 5 of the pyrrolone, several aromatic and aliphatic substituents were tolerated (see 31–35).

[2] = biological target: T2, CCR1 (Homo sapiens, UniProt P32246); test: Membrane-based NanoBRET competition assay with 12 (2000 nM) and CCR1_Nluc membranes; type: binding; parameters: Promega pNLF1-C (Nluc) #CCR010TN00; host or cells: HEK293T, transient (PEI); details: 12 (2000 nM); for % inh. of tracer binding, CCR1 / CCR1 inhibition class (n.i.): compound at 20 μM
T2 sequence (P32246 1-355): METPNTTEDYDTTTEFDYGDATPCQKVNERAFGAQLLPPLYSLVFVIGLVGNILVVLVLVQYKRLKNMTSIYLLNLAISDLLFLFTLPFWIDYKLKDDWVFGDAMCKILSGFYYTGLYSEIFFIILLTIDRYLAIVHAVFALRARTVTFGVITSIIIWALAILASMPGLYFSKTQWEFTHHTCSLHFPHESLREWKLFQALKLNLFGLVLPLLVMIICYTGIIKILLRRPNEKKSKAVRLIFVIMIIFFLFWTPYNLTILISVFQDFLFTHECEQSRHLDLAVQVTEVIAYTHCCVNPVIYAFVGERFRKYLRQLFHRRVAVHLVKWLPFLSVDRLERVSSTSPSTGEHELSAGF

[3] = biological target: T2, CCR1; test: Live cell NanoBRET binding assay, HEK293T cells expressing CCR1_Nluc; parameters: Promega pNLF1-C (Nluc) #CCR010TN00; host or cells: HEK293T, transient (PEI); details: 12 (1000 nM), live HEK293T cells
[4] = read-out: % inh. of tracer binding, CCR2
[5] = CCR1_Nluc membranes, read-out: Ki, CCR1 (converted)
[6] = CCR1_Nluc membranes, read-out: pKi ± SEM, CCR1 (converted)
[7] = read-out: CCR2 inhibition class (n.i.)
[8] = CCR1_Nluc membranes, read-out: Ki, CCR1 (Figure 5B)

Compound | Ki [2, 5] [µM] | Ki [2, 6] [µM] | inhibition at 20 µM [1, 7] [%] | also measured
O=C(C1=C(O)C(=O)N(CCc2ccc(O)cc2)C1c1ccc(Cl)cc1)c1ccccc1 (centres unmarked) [compound 33] | 0.2 | 0.191 |  | inhibition at 20 µM [1, 4]: 18%
O=C(C1=C(O)C(=O)N(CCc2ccccc2)C1c1ccc(F)cc1)c1ccccc1 (centres unmarked) [compound 25] | 0.997 | 0.955 | < 10 | 
O=C(C1=C(O)C(=O)N(CCc2ccc(O)cc2)C1C1CCCCC1)c1ccccc1 (centres unmarked) [compound 34] | 0.231 | 0.219 |  | inhibition at 20 µM [1, 4]: 37%
O=C(O)c1ccc(Oc2ncc(Cl)cc2NS(=O)(=O)c2ccc(Cl)c(C(F)(F)F)c2)cc1 [compound 19, reference compound] | 0.354 |  |  | Ki [2, 8]: 0.35 µM
CC(C)(C)c1ccc(S(=O)(=O)Nc2ccc(Cl)cc2-c2cncnc2N)cc1 [compound 22, reference compound] |  | 2.63 |  | Ki [2, 8]: 2.95 µM
O=C(C1=C(O)C(=O)N(CCc2ccccc2O)C1c1ccc(F)cc1)c1ccccc1 (centres unmarked) [compound 28] | 0.291 |  |  | inhibition at 20 µM [1, 4]: 49%
Cc1ccc(S(=O)(=O)Nc2ccc(Cl)cc2C(=O)c2ccccc2)cc1 [compound 42] |  |  |  | % inh. of tracer binding, CCR1 [2]: ≥ 50%
CCL7: orthosteric CCR1 agonist chemokine, also referred to as MCP-3 |  |  |  | Competition with 12 at CCR1 ([2]; CCR1_Nluc membranes): no competition
O=C(C1=C(O)C(=O)N(CCc2ccc(O)cc2)C1c1ccc(F)cc1)c1ccc(O)cc1 (centres unmarked) [compound 38] |  |  |  | inhibition at 20 µM [1, 4]: 19%; % inh. of tracer binding, CCR1 [2]: 42% @ 20 μM
O=C(C1=C(O)C(=O)N(CCc2ccc(O)cc2)C1c1ccc(F)cc1)c1ccccc1 (single isomer, unassigned; (+)) [(+)-23] | 0.0657 |  | < 10 | 
O=C(C1=C(O)C(=O)N(CCc2ccc(O)cc2)C1c1cccc(Br)c1)C1CC1 (centres unmarked) [compound 37] |  |  | < 10 | CCR1 inhibition class (n.i.) [2]: n.i. (no inhibition (percentual inhibition at 20 μM < 10%))
CC(C)C[C@H](CO)Nc1nc(S[C@@H](C)c2ccccc2)nc2nc(N)sc12 [compound 18, reference compound] | 0.0756 | 0.0724 |  | Ki ([3]; read-out: Ki, live cells): 0.0983 µM; Ki ([3]; read-out: pKi ± SEM, live cells (converted)): 0.0933 µM
COCc1cn(CCCC(=O)C2=C(O)C(=O)N(c3ccc(Br)cc3F)C2C2CCCCC2)nn1 (centres unmarked) [compound 10] | 0.0976 |  |  | 
O=C(C1=C(O)C(=O)N(c2ccc(O)cc2)C1c1ccc(F)cc1)c1ccccc1 (centres unmarked) [compound 30] |  |  | < 10 | % inh. of tracer binding, CCR1 [2]: 32% @ 20 μM
O=C(C1=C(O)C(=O)N(CCc2ccc(O)cc2)C1c1ccc(F)cc1)c1cccc(O)c1 (centres unmarked) [compound 39] |  |  | < 10 | % inh. of tracer binding, CCR1 [2]: 38% @ 20 μM
CC(=O)C1=C(O)C(=O)N(c2ccc(Br)cc2)C1c1ccccc1[N+](=O)[O-] (centres unmarked) [compound 41] |  |  |  | % inh. of tracer binding, CCR1 [2]: ≥ 50%
O=C(C1=C(O)C(=O)N(CCc2ccc(O)cc2)C1c1ccc(F)cc1)C1CC1 (centres unmarked) [compound 36] |  |  | < 10 | % inh. of tracer binding, CCR1 [2]: 25% @ 20 μM
O=C(C1=C(O)C(=O)N(CCc2ccc(O)cc2)C1c1cccc(Br)c1)c1ccccc1 (centres unmarked) [compound 32] | 0.195 | 0.178 | < 10 | 
CC(C)(C)c1ccc(S(=O)(=O)Nc2ccc(Cl)cc2C(=O)c2cc[n+]([O-])cc2)cc1 [compound 21, reference compound] |  | 2.95 |  | Ki [2, 8]: 3.13 µM
O=C(C1=C(O)C(=O)N(Cc2ccc(O)cc2)C1c1ccc(F)cc1)c1ccccc1 (centres unmarked) [compound 29] | 0.13 | 0.12 |  | inhibition at 20 µM [1, 4]: 42%
CC[C@@H](Nc1c(Nc2cccc(C(=O)N(C)C)c2O)c(=O)c1=O)c1ccc(C)o1 [compound 20, reference compound] |  | 2.24 |  | Ki [2, 8]: 2.34 µM
O=C(C1=C(O)C(=O)N(CCc2ccc(O)cc2)C1c1ccc(Br)cc1)c1ccccc1 (centres unmarked) [compound 31] | 0.189 | 0.182 |  | inhibition at 20 µM [1, 4]: 19%
O=C(C1=C(O)C(=O)N(CCc2ccc(O)cc2)C1c1ccc(F)cc1)c1ccccc1 (single isomer, unassigned; (-)) [(-)-23] | 0.216 | 0.209 |  | inhibition at 20 µM [1, 4]: 27%
CC(=O)C1=C(O)C(=O)N(CCc2ccc(O)cc2)C1C1CCCCC1 (centres unmarked) [compound 24] |  |  |  | inhibition at 20 µM [1, 4]: 10%; CCR1 inhibition class (n.i.) [2]: n.i. (no inhibition (percentual inhibition at 20 μM < 10%))
CS(=O)(=O)c1cc(C2(NC(=O)c3cncc4c3cnn4-c3ccc(F)cc3)CC2)ccn1 [compound 3, reference compound] |  |  |  | Enhancement of CCR1 binding of 12 ([2]; CCR1_Nluc membranes): ~150%
O=C(C1=C(O)C(=O)N(CCc2ccc(F)cc2)C1c1ccc(F)cc1)c1ccccc1 (centres unmarked) [compound 26] | 0.952 | 0.871 | < 10 | 
O=C(C1=C(O)C(=O)N(CCc2cccc(O)c2)C1c1ccc(F)cc1)c1ccccc1 (centres unmarked) [compound 27] | 0.184 | 0.178 | < 10 | 
O=C(C1=C(O)C(=O)N(c2ccc(Br)cc2F)C1c1ccc(F)cc1)c1ccccc1 (centres unmarked) [compound 40] | 0.224 |  |  | Ki ([1]; NanoBRET competition, tracer 7): 7.83 µM
O=C(C1=C(O)C(=O)N(CCc2ccc(O)cc2)C1c1ccccc1)c1ccccc1 (centres unmarked) [compound 35] | 0.279 | 0.257 | < 10 | 
